{"source": "ChEMBL document CHEMBL3792284", "about": "“Synthesis of triazoloquinazolinone based compounds as tubulin polymerization inhibitors and vascular disrupting agents” (Eur J Med Chem, 2016)", "type_in_all_cases": "functional", "key": {"[1]": {"test": "Growth inhibition of human COLO205 cells at 10 uM after 48 hrs by sulforhodamine B assay", "conditions": "COLO 205, 48 h, read-out: GI"}, "[2]": {"tested_on": "MDA-MB-435", "test": "Growth inhibition of human MDA-MB-435 cells at 10 uM after 48 hrs by sulforhodamine B assay", "conditions": "MDA-MB-435, 48 h, read-out: GI"}, "[3]": {"tested_on": "SK-MEL-5", "test": "Growth inhibition of human SK-MEL-5 cells at 10 uM after 48 hrs by sulforhodamine B assay", "conditions": "SK-MEL-5, 48 h, read-out: GI"}, "[4]": {"test": "Growth inhibition of human OVCAR3 cells at 10 uM after 48 hrs by sulforhodamine B assay", "conditions": "OVCAR-3, 48 h, read-out: GI"}, "[5]": {"test": "Growth inhibition of human PC3 cells at 10 uM after 48 hrs by sulforhodamine B assay", "conditions": "PC-3, 48 h, read-out: GI"}, "[6]": {"test": "Growth inhibition of human HL-60(TB) cells after 48 hrs by sulforhodamine B assay", "conditions": "HL-60, 48 h"}, "[7]": {"tested_on": "MDA-MB-435", "test": "Growth inhibition of human MDA-MB-435 cells after 48 hrs by sulforhodamine B assay", "conditions": "MDA-MB-435, 48 h"}, "[8]": {"tested_on": "A498", "test": "Growth inhibition of human A498 cells after 48 hrs by sulforhodamine B assay", "conditions": "A498, 48 h"}, "[9]": {"test": "Growth inhibition of human PC3 cells after 48 hrs by sulforhodamine B assay", "conditions": "PC-3, 48 h"}, "[10]": {"test": "Cytotoxicity against human HL-60(TB) cells assessed as cell growth at 10 uM after 48 hrs by sulforhodamine B assay", "conditions": "HL-60, 48 h, read-out: Activity"}, "[11]": {"tested_on": "HUVEC", "test": "Inhibition of cell invasion of HUVEC at 0.01 uM after 24 hrs by crystal violet staining based Boyden chamber assay", "conditions": "Homo sapiens"}, "[12]": {"tested_on": "HUVEC", "test": "Inhibition of cell invasion of HUVEC at 0.1 uM after 24 hrs by crystal violet staining based Boyden chamber assay", "conditions": "Homo sapiens"}}}
{"smiles": "COc1ccc(-c2nnc3n(C)c(=O)c4ccccc4n23)cc1O", "values": [{"measurement": "inhibition of growth at 10 µM", "setting": "[1]", "result": 83, "unit": "%"}, {"measurement": "inhibition of growth at 10 µM", "setting": "[2]", "result": 100, "unit": "%"}, {"measurement": "inhibition of growth at 10 µM", "setting": "[3]", "result": 75, "unit": "%"}, {"measurement": "inhibition of growth at 10 µM", "setting": "[4]", "result": 100, "unit": "%"}, {"measurement": "inhibition of growth at 10 µM", "setting": "[5]", "result": 73, "unit": "%"}, {"measurement": "GI50", "setting": "[6]", "result": 0.064, "unit": "µM"}, {"measurement": "GI50", "setting": "[7]", "result": 0.023, "unit": "µM"}, {"measurement": "GI50", "setting": "[8]", "result": 6.42, "unit": "µM"}, {"measurement": "GI50", "setting": "[9]", "result": 1.43, "unit": "µM"}, {"measurement": "growth at 10 µM", "setting": "[10]", "result": 19, "unit": "%"}, {"measurement": "inhibition at 0.01 µM", "setting": "[11]", "result": 12, "unit": "%"}, {"measurement": "inhibition at 0.1 µM", "setting": "[12]", "result": 36, "unit": "%"}]}
